A short description of assay [1]: Antioxidant activity assessed as ABTS radical scavenging activity. The class given is functional.
Assay [2] deals with H9c2. Put plainly: Cytoprotective activity against doxorubicin-induced cytotoxicity in rat H9c2 cells assessed as cell viability after 24 hrs by MTT assay. The class given is functional, cell-based. (In general: Tetrazolium dyes change colour on reduction, which living cells bring about.)
For assay [3], the system named is Radical scavenging activity. Put plainly: Antioxidant activity of the compound assessed as DPPH radical scavenging activity after 30 mins. The class given is functional.
The nature of assay [4]: Antioxidant activity assessed as ferrous ion chelating activity. The class given is functional.
Assay [5] has as its system H9c2. Put plainly: Cytoprotective activity against rat H9c2 cells assessed as inhibition of doxorubicin-induced intracellular Ca2+ elevation. It counts as functional, cell-based.
Assay [6] concerns H9c2. Description: Cytoprotective activity against rat H9c2 cells assessed as inhibition of doxorubicin-induced intracellular ROS elevation at 5 to 20 uM after 24 hrs. The class given is functional, cell-based.
Assay [7] has as its system H9c2. Description: Cytoprotective activity against rat H9c2 cells assessed as reduction in doxorubicin-induced CK release at 5 to 20 uM after 24 hrs. The class given is functional, cell-based.
For assay [8], the system named is H9c2. Put plainly: Cytoprotective activity against rat H9c2 cells assessed as inhibition of doxorubicin-induced morphological changes at 10 to 40 uM after 24 hrs. It counts as functional, cell-based.
The subject of assay [9] is H9c2. Put plainly: Cytoprotective activity against in rat H9c2 cells assessed as inhibition of doxorubicin-induced cell death after 24 hrs by MTT assay. It counts as functional, cell-based.
Assay [10] has as its system H9c2. Description: Effect on doxorubicin-induced total apoptosis in rat H9c2 cells at 20 uM. The class given is functional, cell-based.
The subject of assay [11] is H9c2. Put plainly: Cytoprotective activity against rat H9c2 cells assessed as reduction in doxorubicin-induced LDH release at 5 to 20 uM after 24 hrs. The class given is functional, cell-based. (In general: LDH leaks from cells whose membrane has failed.)
Where [12] appears, read: Rattus norvegicus, H9c2, 24 h, read-out: EC50.

Calls of active or inactive are those of the source. No cut-off for these calls is given here.

For orientation: EC50 means the concentration needed to bring the measured effect to its halfway point. Regarding `COc1cc2oc(-c3ccc(O)c(O)c3)cc(=O)c2c(O)c1O[C@@H]1O[C@H](CO)[C@@H](O)[C@H](O)[C@H]1O`, the EC50 was 86.1 µM in assay [1], “Not Active” in assay [2] (h9c2), 81.2 µM in [3] and 27600 µM in assay [4].

For `O=c1cc(-c2ccc(O)cc2)oc2cc(O[C@@H]3O[C@H](CO)[C@@H](O)[C@H](O)[C@H]3O)cc(O)c12` [APIGETRIN], the EC50 amounted to 13.1 µM in assay [1], 12.3 µM in assay [2] (setting [12]) and 20.4 µM in [3].

Consider `O=c1cc(-c2ccc(O)c(O)c2)oc2cc(O)cc(O)c12` [LUTEOLIN], for which the EC50 is 105 µM in assay [1], 5.53 µM in [2] (setting [12]), 6.12 µM in [3] and 12000 µM in assay [4].

As for `COc1cc2oc(-c3ccc(O)c(O)c3)cc(=O)c2c(O)c1O[C@@H]1O[C@H](COC(C)=O)[C@@H](O)[C@H](O)[C@H]1O`, the EC50 in assay [1] was found to be 76.2 µM; in [2] (setting [12]), 19.1 µM; in assay [3], 95.2 µM; in assay [4], 1130 µM.

As for `COc1ccc(-c2cc(=O)c3c(O)cc(O[C@@H]4O[C@H](CO)[C@@H](O)[C@H](O)[C@H]4O)cc3o2)cc1` [TILIANINE], the EC50 in [1] is 400 µM; in assay [2] (h9c2), “Not Active”; in assay [3] it was 95 µM.

With `O=C1C[C@@H](c2ccc(O)cc2)Oc2cc(O)cc(O)c21` [NARINGENIN], the EC50 was 13.5 µM in assay [1], “Not Active” in [2] (h9c2), 72.3 µM in [3] and 21400 µM in [4].

In the case of `CCOC(=O)[C@H]1O[C@@H](Oc2cc(O)c3c(=O)cc(-c4ccc(O)c(O)c4)oc3c2)[C@H](O)[C@@H](O)[C@@H]1O`, the concentration giving a half-maximal response (EC50) in [1] came out at 87.8 µM; in assay [2] (setting [12]), 6.34 µM; in assay [3], 13.2 µM; in [4], 3310 µM.

For `O=C1C[C@@H](c2cc(O)cc(O)c2)Oc2cc(O)cc(O)c21`, the EC50 in [1] was 16.3 µM; in [2] (h9c2) it was “Not Active”; in [3], 32.1 µM; in assay [4], 161000 µM.

On to `COc1cc2oc(-c3ccc(O)cc3)cc(=O)c2c(O)c1O`, for which the values for the EC50 in [1], in [2] (h9c2) and in assay [3] were 13.4 µM, “Not Active” and 20 µM, respectively.

For the compound `O=C1C[C@@H](c2ccc(O)cc2)Oc2cc(O[C@@H]3O[C@H](CO)[C@@H](O)[C@H](O)[C@H]3O)cc(O)c21` [PRUNIN], the EC50 was 18.1 µM in assay [1], “Not Active” in assay [2] (h9c2) and 40.6 µM in assay [3].

For the compound `COc1cc2oc(-c3ccc(O)c(O[C@@H]4O[C@H](CO)[C@@H](O)[C@H](O)[C@H]4O)c3)cc(=O)c2c(O)c1O`, the 50% effective concentration (EC50) in assay [1] worked out at 15.7 µM; in assay [2] (setting [12]) it was 13.1 µM; in [3], 31 µM; in assay [4], 60 µM.

As to `O=c1cc(-c2ccc(O)c(O)c2)oc2cc(O[C@@H]3O[C@H](CO)[C@@H](O)[C@H](O)[C@H]3O)cc(O)c12` [GALUTEOLIN], in assay [5], the Activity result is “Dose-dependent effect”. The 50% effective concentration (EC50) in assay [1] came out at 56.5 µM; in [2] (setting [12]), 5.04 µM; in [3], 3.94 µM; in assay [4], 1100 µM. For the same compound, the outcome in [6], in [7], in assay [8] and in [11] was Active. For the same compound, the outcome in [9] and in [10] was inactive.

As to `O=C1C[C@@H](c2ccc(O)c(O)c2)Oc2cc(O[C@@H]3O[C@H](CO)[C@@H](O)[C@H](O)[C@H]3O)cc(O)c21`, the concentration giving a half-maximal response (EC50) in assay [1] worked out at 7.26 µM; in assay [2] (setting [12]), 38.2 µM; in [3] it was 15.6 µM; in assay [4] it was 213000 µM.

For the compound `COc1cc2oc(-c3ccc(O)cc3)cc(=O)c2c(O)c1O[C@@H]1O[C@H](COC(C)=O)[C@@H](O)[C@H](O)[C@H]1O`, the EC50 in [1] is 12.3 µM; in assay [2] (h9c2), “Not Active”; in [3], 113 µM; in [4], 4510 µM.

For the compound `O=C1C[C@@H](c2ccc(O)c(O)c2)Oc2cc(O)cc(O)c21` [ERIODICTYOL], the half-maximal effective concentration (EC50) in assay [1] amounted to 1.15 µM; in assay [2] (setting [12]) it was 25.5 µM; in [3], 98.8 µM; in assay [4], 8370 µM.

In the case of `COc1cc2oc(-c3ccc(O)cc3)cc(=O)c2c(O)c1O[C@@H]1O[C@H](CO)[C@@H](O)[C@H](O)[C@H]1O`, the EC50 was 581 µM in assay [1], “Not Active” in assay [2] (h9c2) and 159 µM in assay [3].

(Values after ChEMBL document CHEMBL1268973, “Flavonoids from Dracocephalum tanguticum and their cardioprotective effects against doxorubicin-induced toxicity in H9c2 cells” (Bioorg Med Chem Lett, 2010).)
